Experiment [1] concerns homozygous diploid strain containing a PDR5 deletion mutation (strain #32409, S04). Put plainly: Growth yield (OD600) of homozygous diploid PDR5 deletion strain in YPD medium with butanol. The format is cell-based, Saccharomyces cerevisiae. Conditions: for OD600 after 23 hours incubation with 1-butanol / OD600 after 24 hours incubation with isobutanol: diploid PDR5 mutant, YPD, 30° C., inoculum OD600 0.01, average +/- SD; for growth yield of strain with the PDR5 deletion compared to BY4743: diploid.

In experiment [2] the test system is diploid parental strain BY4743. Conditions: YPD, 30° C., inoculum OD600 0.01, average +/- SD.
Protocol: The inoculum OD600 was 0.01. The OD600 of each culture was measured after 24 hours incubation on a roller drum at 30° C. Triplicate cultures of each strain were tested. The average and standard deviation of the 24 hour growth yield measurements in each isobutanol concentration are given in Table 5.
The inoculum OD600 was 0.01. The OD600 of each culture was measured after 23 hours incubation on a roller drum at 30° C. Triplicate cultures of each strain were tested.
In a further experiment the test system is parental strain BY4741. The experiment can be described thus: Growth yield (OD600) of haploid parental strain in YPD medium with isobutanol. The format is cell-based, Saccharomyces cerevisiae. Particulars: 30° C., inoculum OD600 0.01, average +/- SD. How it is done: (§1) A haploid strain of Saccharomyces cerevisiae containing a PDR5 deletion mutation (strain #2409) was obtained from Open Biosystems (Huntsville, Ala.) The deletion strain was made as part of the Saccharomyces Genome Deletion Project described in Winzeler al. (Science, 285:901-906, (1999)). […] The inoculum OD600 was 0.01. […] Duplicate cultures of each strain were tested.

The subject of experiment [3] is haploid strain containing a PDR5 deletion mutation (strain #2409). The experiment can be described thus: Growth yield (OD600) of haploid PDR5 deletion strain in YPD medium with isobutanol. In kind it is cell-based, Saccharomyces cerevisiae. Conditions: for OD600 after 24 hours incubation with isobutanol: haploid PDR5 mutant, YPD, 30° C., inoculum OD600 0.01, average +/- SD; for growth yield of strain with the PDR5 deletion compared to BY4741: haploid, 24 hours. Here is the method: as §1

Where two headings read alike, the source gives them in different places.

With `CCCCO` [1-Butanol, 1-butanol], the “OD600 after 23 hours incubation with 1-butanol” value in experiment [1] (0.625 % w/v 1-butanol) is 3.27 +/− 0.23; in experiment [1] (0.75 % w/v 1-butanol), 0.40 +/− 0.02; in experiment [1] (0.875 % w/v 1-butanol) it was 0.27 +/− 0.01; in experiment [2] (0.625 % w/v 1-butanol), 2.38 +/− 0.25; in experiment [2] (0.75 % w/v 1-butanol) it was 0.30 +/− 0.03; in experiment [2] (0.875 % w/v 1-butanol), 0.22 +/− 0.01. The “growth yield of strain with the PDR5 deletion compared to BY4743” value is recorded as 1.4 fold in experiment [1] (0.625% w/v 1-butanol, 23 hours); 1.3 fold in experiment [1] (0.75% w/v 1-butanol, 23 hours); 1.2 fold in experiment [1] (0.875% w/v 1-butanol, 23 hours).

For the compound `CC(C)CO` [Isobutanol, isobutanol], the “OD600 after 24 hours incubation with isobutanol” value (shortened to “OD600 after 24 hours incubation”) in the experiment on parental strain BY4741 (0.75 % w/v isobutanol) is 2.68 +/− 0.07; in the experiment on parental strain BY4741 (0.875 % w/v isobutanol) it was 0.692 +/− 0.04; in the experiment on parental strain BY4741 (1 % w/v isobutanol), 0.09 +/− 0.02; in experiment [3] (0.75 % w/v isobutanol), 4.71 +/− 0.53; in experiment [3] (0.875 % w/v isobutanol) it was 2.45 +/− 0.42; in experiment [3] (1 % w/v isobutanol), 0.76 +/− 0.13. The “OD600 after 24 hours incubation” value in experiment [1] (0.25 % w/v isobutanol) is on record as 7.51 +/− 0.11; in experiment [1] (0.5 % w/v isobutanol) it was 7.17 +/− 0.12; in experiment [1] (0.75 % w/v isobutanol), 4.91 +/− 0.29; in experiment [1] (0.825 % w/v isobutanol), 1.67 +/− 0.13; in experiment [1] (1 % w/v isobutanol), 0.16 +/− 0.01; in experiment [2] (0.25 % w/v isobutanol), 7.36 +/− 0.04. Also, the “OD600 after 24 hours incubation” value in experiment [2] (0.5 % w/v isobutanol) is listed as 6.62 +/− 0.24; in experiment [2] (0.75 % w/v isobutanol) it was 1.84 +/− 0.36; in experiment [2] (0.825 % w/v isobutanol) it was 0.19 +/− 0.03; in experiment [2] (1 % w/v isobutanol), 0.08 +/− 0.01. The figures for the “growth yield of strain with the PDR5 deletion compared to BY4741” value in experiment [3] (0.75% w/v isobutanol), in experiment [3] (0.825% w/v isobutanol) and in experiment [3] (1% w/v isobutanol) were 1.8 fold, 3.5 fold and 8 fold, respectively. The “growth yield of strain with the PDR5 deletion compared to BY4743” value in experiment [1] (0.75% w/v isobutanol, 24 hours) amounted to 2.7 fold; in experiment [1] (0.825% w/v isobutanol, 24 hours), 8.8 fold.

(Values after patent US8614085B2, “Yeast with increased butanol tolerance involving a multidrug efflux pump gene” (Butamax(TM) Advanced Biofuels LLC, priority 2009, dated 2013).)
